# Data taken from PubChem BioAssay AID1259407 (Chemical Carcinogenesis Research Information System (CCRIS), 2018).
# Active and inactive are the calls of the source. No rule for the calls is given here.
# Test system: CCRIS mutagenicity, Ames/micronucleus/aberration tests
# Assay: CCRIS mutagenicity studies
smiles,measurement,setting,value
C=CC#N,mutagenic call,"End Point: IN VITRO CHROMOSOMAL ABERRATIONS, Test System: CHL CELLS, Metabolic Activation: RAT, LIVER, S-9, SODIUM PHENOBARBITAL AND 5,6-BENZOFLAVONE",active; positive (structural changes)
same,mutagenic call,"End Point: IN VIVO CHROMOSOMAL ABERRATIONS, Test System: BONE MARROW CELLS, Species: MOUSE, Strain/Sex: C57B1/6/MALE, Route: IP INJECTION (ONCE)",inactive; negative
same,mutagenic call,"Test System: AMES SALMONELLA TYPHIMURIUM, Strain/Indicator: TA97, Metabolic Activation: HAMSTER LIVER S-9, AROCLOR 1254 (10%), Method: PREINCUBATION",inactive; negative
same,mutagenic call,"Test System: AMES SALMONELLA TYPHIMURIUM, Strain/Indicator: TA97, Metabolic Activation: NONE, Method: PREINCUBATION",inactive; negative
same,mutagenic call,"Test System: AMES SALMONELLA TYPHIMURIUM, Strain/Indicator: TA97, Metabolic Activation: NONE, Method: STANDARD PLATE",inactive; negative
same,mutagenic call,"Test System: AMES SALMONELLA TYPHIMURIUM, Strain/Indicator: TA97, Metabolic Activation: RAT LIVER S-9, AROCLOR 1254 (10%), Method: PREINCUBATION",inactive; negative
same,mutagenic call,"Test System: AMES SALMONELLA TYPHIMURIUM, Strain/Indicator: TA97, Metabolic Activation: RAT, LIVER, S-9, AROCLOR 1254, Method: STANDARD PLATE",inactive; negative
same,mutagenic call,"Test System: AMES SALMONELLA TYPHIMURIUM, Strain/Indicator: TA97, Metabolic Activation: S-9, Method: STANDARD PLATE",inactive; negative
same,mutagenic call,"Test System: AMES SALMONELLA TYPHIMURIUM, Strain/Indicator: TA98, Metabolic Activation: HAMSTER LIVER S-9, AROCLOR 1254 (10%), Method: PREINCUBATION",inactive; negative
same,mutagenic call,"Test System: AMES SALMONELLA TYPHIMURIUM, Strain/Indicator: TA98, Metabolic Activation: NONE, Method: PREINCUBATION",inactive; negative
same,mutagenic call,"Test System: AMES SALMONELLA TYPHIMURIUM, Strain/Indicator: TA98, Metabolic Activation: NONE, Method: STANDARD PLATE",inactive; negative
same,mutagenic call,"Test System: AMES SALMONELLA TYPHIMURIUM; Strain/Indicator: TA98; Metabolic Activation: RAT LIVER S-9, AROCLOR 1254 910%), Method: PREINCUBATION",inactive; negative
same,mutagenic call,"Test System: AMES SALMONELLA TYPHIMURIUM, Strain/Indicator: TA98, Metabolic Activation: RAT, LIVER, S-9, AROCLOR 1254, Method: STANDARD PLATE",inactive; negative
same,mutagenic call,"Test System: AMES SALMONELLA TYPHIMURIUM, Strain/Indicator: TA98, Metabolic Activation: S-9, Method: STANDARD PLATE",inactive; negative
same,mutagenic call,"Test System: AMES SALMONELLA TYPHIMURIUM, Strain/Indicator: TA100, Metabolic Activation: HAMSTER LIVER S-9, AROCLOR 1254 (5%), Method: PREINCUBATION",inactive; negative
same,mutagenic call,"Test System: AMES SALMONELLA TYPHIMURIUM, Strain/Indicator: TA100, Metabolic Activation: HAMSTER LIVER S-9, AROCLOR 1254 (5 OR 10%), Method: PREINCUBATION",inactive; negative
same,mutagenic call,"Test System: AMES SALMONELLA TYPHIMURIUM, Strain/Indicator: TA100, Metabolic Activation: HAMSTER LIVER S-9, AROCLOR 1254 (10% OR 30%), Method: PREINCUBATION",active; positive
same,mutagenic call,"Test System: AMES SALMONELLA TYPHIMURIUM, Strain/Indicator: TA100, Metabolic Activation: HAMSTER LIVER S-9, AROCLOR 1254 (10%), Method: PREINCUBATION",active; positive
same,mutagenic call,"Test System: AMES SALMONELLA TYPHIMURIUM, Strain/Indicator: TA100, Metabolic Activation: HAMSTER LIVER S-9, AROCLOR 1254 (30%), Method: PREINCUBATION",active; positive
same,mutagenic call,"Test System: AMES SALMONELLA TYPHIMURIUM, Strain/Indicator: TA100, Metabolic Activation: HAMSTER, LIVER, S-9, AROCLOR 1254 (5, 10, 20%), Method: PREINCUBATION",active; positive
same,mutagenic call,"Test System: AMES SALMONELLA TYPHIMURIUM, Strain/Indicator: TA100, Metabolic Activation: HAMSTER, LIVER, S-9, AROCLOR 1254 (20%), Method: PREINCUBATION",active; positive
same,mutagenic call,"Test System: AMES SALMONELLA TYPHIMURIUM, Strain/Indicator: TA100, Metabolic Activation: NONE, Method: PREINCUBATION",inactive; negative
same,mutagenic call,"Test System: AMES SALMONELLA TYPHIMURIUM, Strain/Indicator: TA100, Metabolic Activation: NONE, Method: STANDARD PLATE",inactive; negative
same,mutagenic call,"Test System: AMES SALMONELLA TYPHIMURIUM, Strain/Indicator: TA100, Metabolic Activation: RAT LIVER S-9, AROCLOR 1254 (5, 10, OR 30%), Method: PREINCUBATION",inactive; negative
same,mutagenic call,"Test System: AMES SALMONELLA TYPHIMURIUM, Strain/Indicator: TA100, Metabolic Activation: RAT LIVER S-9, AROCLOR 1254 (5/%, 10% OR 30%), Method: PREINCUBATION",inactive; negative
same,mutagenic call,"Test System: AMES SALMONELLA TYPHIMURIUM, Strain/Indicator: TA100, Metabolic Activation: RAT LIVER S-9, AROCLOR 1254 (10%), Method: PREINCUBATION",inactive; negative
same,mutagenic call,"Test System: AMES SALMONELLA TYPHIMURIUM, Strain/Indicator: TA100, Metabolic Activation: RAT, LIVER, S-9, AROCLOR 1254, Method: FLUCTUATION",active; positive
same,mutagenic call,"Test System: AMES SALMONELLA TYPHIMURIUM, Strain/Indicator: TA100, Metabolic Activation: RAT, LIVER, S-9, AROCLOR 1254, Method: STANDARD PLATE",inactive; negative
same,mutagenic call,"Test System: AMES SALMONELLA TYPHIMURIUM, Strain/Indicator: TA100, Metabolic Activation: S-9, Method: STANDARD PLATE",inactive; negative
same,mutagenic call,"Test System: AMES SALMONELLA TYPHIMURIUM, Strain/Indicator: TA102, Metabolic Activation: NONE, Method: STANDARD PLATE",inactive; negative
same,mutagenic call,"Test System: AMES SALMONELLA TYPHIMURIUM, Strain/Indicator: TA102, Metabolic Activation: S-9, Method: STANDARD PLATE",inactive; negative
same,mutagenic call,"Test System: AMES SALMONELLA TYPHIMURIUM, Strain/Indicator: TA1530, Metabolic Activation: RAT, LIVER, S-9, 3-METHYLCHOLANTHRENE OR PCB OR PHENOBARBITAL, Method: FLUCTUATION",active; positive
same,mutagenic call,"Test System: AMES SALMONELLA TYPHIMURIUM, Strain/Indicator: TA1530, Metabolic Activation: RAT, LIVER, S-9, PCB OR PHENOBARBITAL, Method: DESICCATOR",active; positive
